{
  "source": "patent US20190284168A1",
  "about": "“PYRAZOLE DERIVATIES AS SGC STIMULATORS” (IRONWOOD PHARMACEUTICALS, INC., priority 2014, published 2019)",
  "data": [
    {"molecular_target": "T1, soluble guanylate cyclase (sGC) (Homo sapiens, UniProt Q02108+Q02153)", "T1 construct": "endogenously expressing soluble guanylate cyclase (sGC); endogenous in cells; host or cells: HEK293", "T1 sequence (Q02153 1-619)": "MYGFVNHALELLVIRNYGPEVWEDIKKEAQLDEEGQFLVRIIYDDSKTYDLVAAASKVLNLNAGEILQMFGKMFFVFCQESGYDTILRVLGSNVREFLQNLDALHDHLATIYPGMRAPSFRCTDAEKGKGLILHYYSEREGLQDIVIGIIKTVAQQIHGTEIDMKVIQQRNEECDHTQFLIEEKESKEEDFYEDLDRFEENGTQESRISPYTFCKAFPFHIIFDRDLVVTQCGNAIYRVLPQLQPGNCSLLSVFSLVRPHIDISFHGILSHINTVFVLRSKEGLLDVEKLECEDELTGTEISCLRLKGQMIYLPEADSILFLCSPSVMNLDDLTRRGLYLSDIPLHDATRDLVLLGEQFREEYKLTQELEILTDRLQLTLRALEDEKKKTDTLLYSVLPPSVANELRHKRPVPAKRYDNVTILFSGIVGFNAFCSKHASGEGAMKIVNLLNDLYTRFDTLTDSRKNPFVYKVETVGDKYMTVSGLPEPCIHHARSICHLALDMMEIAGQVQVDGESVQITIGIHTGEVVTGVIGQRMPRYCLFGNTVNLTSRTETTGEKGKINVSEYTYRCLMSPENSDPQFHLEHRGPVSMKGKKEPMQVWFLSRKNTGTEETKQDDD", "T1 sequence (Q02108 1-690)": "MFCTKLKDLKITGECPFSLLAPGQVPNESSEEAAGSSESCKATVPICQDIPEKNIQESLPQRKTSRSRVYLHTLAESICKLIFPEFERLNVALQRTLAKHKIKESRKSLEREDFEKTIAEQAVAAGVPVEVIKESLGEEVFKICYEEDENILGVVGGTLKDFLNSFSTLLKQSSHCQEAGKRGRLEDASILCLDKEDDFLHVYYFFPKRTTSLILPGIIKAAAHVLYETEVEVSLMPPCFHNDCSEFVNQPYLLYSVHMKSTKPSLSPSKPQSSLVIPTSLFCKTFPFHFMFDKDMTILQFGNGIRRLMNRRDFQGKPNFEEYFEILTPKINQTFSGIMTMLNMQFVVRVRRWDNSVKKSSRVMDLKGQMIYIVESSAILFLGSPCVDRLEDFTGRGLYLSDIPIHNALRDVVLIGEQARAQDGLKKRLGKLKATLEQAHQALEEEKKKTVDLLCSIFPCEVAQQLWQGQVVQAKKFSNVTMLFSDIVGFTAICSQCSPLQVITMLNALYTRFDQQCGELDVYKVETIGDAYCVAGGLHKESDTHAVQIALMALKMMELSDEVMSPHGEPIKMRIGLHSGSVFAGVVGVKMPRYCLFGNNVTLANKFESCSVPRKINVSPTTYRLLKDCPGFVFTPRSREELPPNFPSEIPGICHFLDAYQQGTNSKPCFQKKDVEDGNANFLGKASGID", "assay": "sGC-HEK-cGMP assay with LC/MS detection", "assay_type": "cell-based", "conditions": "HEK293 whole cells, LC/MS detection of cGMP, 10 μM DETA-NONOate; 50% of high control response (30 μM Compound Y); read-out: Absolute EC50 (nM)- binned (~)", "units": {"EC50": "nM"}, "values": [
      {"smiles": "CC(=O)c1cc(-c2ncc(F)c(NCCCCC(=O)O)n2)nn1Cc1ccccc1F", "note": "[Compound 87]", "EC50": "100 to 1000"},
      {"smiles": "CC(=O)c1cc(-c2ncc(F)c(N3CCC(S(N)(=O)=O)CC3)n2)nn1Cc1ccccc1F", "note": "[Compound 88]", "EC50": "100 to 1000"},
      {"smiles": "CC(=O)c1cc(-c2ncc(F)c(N3CC(C)C(C(=O)O)C3)n2)nn1Cc1ccccc1F", "note": "(centres unmarked) [Compound 89]", "EC50": "100 to 1000"},
      {"smiles": "CC(=O)c1cc(-c2ncc(F)c(N(C)CC3(C(=O)O)CCCC3)n2)nn1Cc1ccccc1F", "note": "[Compound 90]", "EC50": "< 100"},
      {"smiles": "CC(=O)c1cc(-c2ncc(F)c(N(C)C)n2)nn1Cc1ccccc1F", "note": "[Compound 91]", "EC50": "100 to 1000"},
      {"smiles": "CC(=O)c1cc(-c2ncc(F)c(N3CCCC3)n2)nn1Cc1ccccc1F", "note": "[Compound 92]", "EC50": "> 1000"},
      {"smiles": "CC(=O)c1cc(-c2ncc(F)c(N3CCCCC3)n2)nn1Cc1ccccc1F", "note": "[Compound 93]", "EC50": "100 to 1000"},
      {"smiles": "CC(=O)c1cc(-c2ncc(F)c(N3CCNCC3)n2)nn1Cc1ccccc1F", "note": "[Compound 94]", "EC50": "> 1000"},
      {"smiles": "CC(=O)c1cc(-c2ncc(F)c(N3CCOCC3)n2)nn1Cc1ccccc1F", "note": "[Compound 95]", "EC50": "100 to 1000"},
      {"smiles": "CC(=O)c1cc(-c2ncc(F)c(NS(=O)(=O)CCC(F)(F)F)n2)nn1Cc1ccccc1F", "note": "[Compound 96]", "EC50": "100 to 1000"},
      {"smiles": "CCCS(=O)(=O)Nc1nc(-c2cc(C(C)=O)n(Cc3ccccc3F)n2)ncc1F", "note": "[Compound 97]", "EC50": "> 1000"},
      {"smiles": "CC(=O)c1cc(-c2ncc(F)c(NS(=O)(=O)c3ccccc3)n2)nn1Cc1ccccc1F", "note": "[Compound 98]", "EC50": "> 1000"},
      {"smiles": "CC(=O)c1cc(-c2ncc(F)c(N(C)CC3(C(N)=O)CC3)n2)nn1Cc1ccccc1F", "note": "[Compound 99]", "EC50": "100 to 1000"},
      {"smiles": "NC(=O)C(O)(CNc1nc(-c2cc(-c3ncco3)n(Cc3ccccc3F)n2)ncc1F)C(F)(F)F", "note": "(centres unmarked) [Compound 102]", "EC50": "100 to 1000"},
      {"smiles": "OC(CNc1nc(-c2cc(-c3ncco3)n(Cc3ccccc3F)n2)ncc1F)(C(F)(F)F)C(F)(F)F", "note": "[Compound 103]", "EC50": "100 to 1000"},
      {"smiles": "COCc1cc(-c2ncc(F)c(O)n2)nn1Cc1ccccc1F", "note": "[Compound 105]", "EC50": "> 30000"},
      {"smiles": "C[C@@](N)(CNc1nc(-c2cc(-c3ccon3)n(Cc3ccccc3F)n2)ncc1F)C(F)(F)F", "note": "[Compound 106]", "EC50": "< 100"},
      {"smiles": "C[C@@](CNc1nc(-c2cc(-c3ccon3)n(Cc3ccccc3F)n2)ncc1F)(N[C@@H](CO)c1ccccc1)C(F)(F)F", "note": "[Compound 107]", "EC50": "< 100"},
      {"smiles": "CC(=O)c1cc(-c2ncc(F)c(N3CCC4(CCOCC4)C3)n2)nn1Cc1ccccc1F", "note": "[Compound 112]", "EC50": "100 to 1000"},
      {"smiles": "CC(=O)c1cc(-c2ncc(F)c(N3CCC4(CC3)COC4)n2)nn1Cc1ccccc1F", "note": "[Compound 113]", "EC50": "100 to 1000"},
      {"smiles": "CC(=O)c1cc(-c2ncc(F)c(N3CC(F)(F)C3)n2)nn1Cc1ccccc1F", "note": "[Compound 114]", "EC50": "> 1000"},
      {"smiles": "CC(=O)c1cc(-c2ncc(F)c(N3CCS(=O)(=O)C(C)(C)C3)n2)nn1Cc1ccccc1F", "note": "[Compound 115]", "EC50": "> 1000"},
      {"smiles": "CC(=O)c1cc(-c2ncc(F)c(N3CC[C@H](O)[C@H](O)C3)n2)nn1Cc1ccccc1F", "note": "[Compound 116]", "EC50": "100 to 1000"},
      {"smiles": "CC(=O)c1cc(-c2ncc(F)c(N3CCC(O)C(CO)C3)n2)nn1Cc1ccccc1F", "note": "(centres unmarked) [Compound 117]", "EC50": "100 to 1000"},
      {"smiles": "CC(=O)c1cc(-c2ncc(F)c(N3CC4(COC4)C3)n2)nn1Cc1ccccc1F", "note": "[Compound 118]", "EC50": "> 1000"},
      {"smiles": "CC(=O)c1cc(-c2ncc(F)c(N3CCCS3(=O)=O)n2)nn1Cc1ccccc1F", "note": "[Compound 119]", "EC50": "> 1000"},
      {"smiles": "CC(=O)c1cc(-c2ncc(F)c(N3CCN(S(C)(=O)=O)CC3)n2)nn1Cc1ccccc1F", "note": "[Compound 120]", "EC50": "> 30000"},
      {"smiles": "CC(=O)c1cc(-c2ncc(F)c(N3CC(NC(=O)C(F)(F)F)C3)n2)nn1Cc1ccccc1F", "note": "[Compound 121]", "EC50": "> 1000"},
      {"smiles": "CC(=O)c1cc(-c2ncc(F)c(N3CC(NC(=O)C4(O)CC4)C3)n2)nn1Cc1ccccc1F", "note": "[Compound 122]", "EC50": "> 1000"},
      {"smiles": "CC(=O)c1cc(-c2ncc(F)c(NC3CCCCC3C(=O)O)n2)nn1Cc1ccccc1F", "note": "(centres unmarked) [Compound 123]", "EC50": "100 to 1000"},
      {"smiles": "CC(=O)c1cc(-c2ncc(F)c(NCCO)n2)nn1Cc1ccccc1F", "note": "[Compound 125]", "EC50": "> 1000"},
      {"smiles": "CC(=O)c1cc(-c2ncc(F)c(Nc3nnc(C(F)(F)F)s3)n2)nn1Cc1ccccc1F", "note": "[Compound 126]", "EC50": "> 30000"},
      {"smiles": "OCC(CCCC(F)(F)F)Nc1nc(-c2cc(-c3ccon3)n(Cc3ccccc3F)n2)ncc1F", "note": "(centres unmarked) [Compound 127, 6,6,6-trifluoro-2-((5-fluoro-2-(1-(2-fluorobenzyl)-5-(isoxazol-3-yl)-1H-pyrazol-3-yl)pyrimidin-4-yl)amino)hexan-1-ol]", "EC50": "< 100"},
      {"smiles": "CCC(C)(N)CNc1nc(-c2cc(C(C)=O)n(Cc3ccccc3F)n2)ncc1F", "note": "(centres unmarked) [Compound 129, 1-(3-(4-((2-amino-2-methylbutyl)amino)-5-fluoropyrimidin-2-yl)-1-(2-fluorobenzyl)-1H-pyrazol-5-yl)ethanone]", "EC50": "> 1000"},
      {"smiles": "C[C@@](CNc1nc(-c2cc(-c3ccon3)n(Cc3ccccc3F)n2)ncc1F)(NC(CO)c1ccccc1)C(F)(F)F", "note": "(stereo partly drawn) [Compound 130, 2-phenyl-2-(((S)-1,1,1-trifluoro-3-((5-fluoro-2-(1-(2-fluorobenzyl)-5-(isoxazol-3-yl)-1H-pyrazol-3-yl)pyrimidin-4-yl)amino)-2-methylpropan-2-yl)amino)ethanol]", "EC50": "100 to 1000"},
      {"smiles": "C[C@](CNc1nc(-c2cc(-c3ccon3)n(Cc3ccccc3F)n2)ncc1F)(NC(CO)c1ccccc1)C(F)(F)F", "note": "(stereo partly drawn) [Compound 131, 2-phenyl-2-(((R)-1,1,1-trifluoro-3-((5-fluoro-2-(1-(2-fluorobenzyl)-5-(isoxazol-3-yl)-1H-pyrazol-3-yl)pyrimidin-4-yl)amino)-2-methylpropan-2-yl)amino)ethanol]", "EC50": "100 to 1000"},
      {"smiles": "CC(=O)c1cc(-c2ncc(F)c(N3CC(C(=O)O)C(C)(C)C3)n2)nn1Cc1ccccc1F", "note": "(centres unmarked) [Compound 136, 1-(2-(5-acetyl-1-(2-fluorobenzyl)-1H-pyrazol-3-yl)-5-fluoropyrimidin-4-yl)-4,4-dimethylpyrrolidine-3-carboxylic acid]", "EC50": "100 to 1000"},
      {"smiles": "CC(=O)c1cc(-c2ncc(F)c(N[C@@H]3CCCC[C@H]3C(=O)O)n2)nn1Cc1ccccc1F", "note": "[Compound 137, (1R,2R)-2-((2-(5-acetyl-1-(2-fluorobenzyl)-1H-pyrazol-3-yl)-5-fluoropyrimidin-4-yl)amino)cyclohex anecarboxylic acid]", "EC50": "100 to 1000"},
      {"smiles": "CC(=O)c1cc(-c2ncc(F)c(N[C@@H](CC(=O)O)C(C)C)n2)nn1Cc1ccccc1F", "note": "[Compound 138, (S)-3-((2-(5-acetyl-1-(2-fluorobenzyl)-1H-pyrazol-3-yl)-5-fluoropyrimidin-4-yl)amino)-4-methylpentanoic acid]", "EC50": "100 to 1000"},
      {"smiles": "CC(=O)c1cc(-c2ncc(F)c(N3CCC(C(=O)O)(c4ccccc4)CC3)n2)nn1Cc1ccccc1F", "note": "[Compound 139, 1-(2-(5-acetyl-1-(2-fluorobenzyl)-1H-pyrazol-3-yl)-5-fluoropyrimidin-4-yl)-4-phenylpiperidine-4-carboxylic acid]", "EC50": "100 to 1000"},
      {"smiles": "CCN(CC)c1nc(-c2cc(-c3ncco3)n(Cc3ccccc3F)n2)ncc1F", "note": "[Compound 140]", "EC50": "> 1000"},
      {"smiles": "COC1=CC(=O)N(c2nc(-c3cc(-c4ccon4)n(Cc4ccccc4F)n3)ncc2F)C1", "note": "[Compound 147, 1-(5-fluoro-2-(1-(2-fluorobenzyl)-5-(isoxazol-3-yl)-1H-pyrazol-3-yl)pyrimidin-4-yl)-4-methoxy-1H-pyrrol-2(5H)-one]", "EC50": "> 1000"},
      {"smiles": "CC(C)[C@H](CO)Nc1nc(-c2cc(-c3ccon3)n(Cc3ccccc3F)n2)ncc1F", "note": "[Compound 148, (R)-2-((5-fluoro-2-(1-(2-fluorobenzyl)-5-(isoxazol-3-yl)-1H-pyrazol-3-yl)pyrimidin-4-yl)amino)-3-methylbutan-1-ol]", "EC50": "< 100"},
      {"smiles": "CC(C)C[C@H](CO)Nc1nc(-c2cc(-c3ccon3)n(Cc3ccccc3F)n2)ncc1F", "note": "[Compound 149, (R)-2-((5-fluoro-2-(1-(2-fluorobenzyl)-5-(isoxazol-3-yl)-1H-pyrazol-3-yl)pyrimidin-4-yl)amino)-4-m ethylpentan-1-ol]", "EC50": "< 100"}
    ]}
  ]
}
